What was measured:
CDC-14A = CDC-14A (Homo sapiens, UniProt Q9UNH5); experiment: PTP inhibition assay (pNPP); type: biochemical
Description: (§1) PTP activity was assayed using p-nitrophenyl phosphate (pNPP) as a substrate in DMG buffer (50 mM DMG, pH 7.0, 1 mM EDTA, 150 mM NaCl, 2 mM DTT, 0.1 mg/mL BSA) at 25 °C. The assays were performed in 96-well plates. To determine the IC50 values, the reaction was initiated by the addition of enzyme (final concentration = 10 nM) to a reaction mixture (0.2 mL) containing pNPP (at a final concentration close to the Kms of tested enzymes, in specific: 0.05 mM for CDC-14A; 0.5 mM for FAP-1; 2 mM for TC-PTP, PTP1B, STEP, LWM-PTP, and PTPα; 3 mM for SHP1; 4 mM for Laforin; 5 mM for LYP, CD45, and VHR; 6 mM for PTP-MEG2 and HePTP) with various concentrations of inhibitors. The reaction rate was measured using a SpectraMax Plus 384 Microplate Spectrophotometer (Molecular Devices, San Jose, CA, USA). Data were fitted using the SigmaPlot Enzyme Kinetics Module (Systat Software, Inc., San Jose, CA, USA).

VHR = VHR (Homo sapiens, UniProt P51452); experiment: PTP inhibition assay (pNPP); type: biochemical
Description: as §1

CD45 = CD45 (Homo sapiens, UniProt P08575); experiment: PTP inhibition assay (pNPP); type: biochemical
Description: as §1

Laforin = Laforin (Homo sapiens, UniProt O95278); experiment: PTP inhibition assay (pNPP); type: biochemical
Description: as §1

STEP = STEP (Homo sapiens, UniProt P54829); experiment: PTP inhibition assay (pNPP); type: biochemical
Description: as §1

HePTP = HePTP (Homo sapiens, UniProt P35236); experiment: PTP inhibition assay (pNPP); type: biochemical
Description: as §1

PTP-α = PTP-α (Homo sapiens, UniProt P18433); experiment: PTP inhibition assay (pNPP); type: biochemical
Description: as §1

PTP-MEG2 = PTP-MEG2 (Homo sapiens, UniProt P43378); experiment: PTP inhibition assay (pNPP); type: biochemical
Description: as §1

SHP1 = SHP1 (Homo sapiens, UniProt P29350); experiment: PTP inhibition assay (pNPP); type: biochemical
Description: as §1

LYP = LYP (Homo sapiens, UniProt Q9Y2R2); experiment: PTP inhibition assay (pNPP); type: biochemical
Description: as §1

LMW-PTP = LMW-PTP (Homo sapiens, UniProt P24666); experiment: PTP inhibition assay (pNPP); type: biochemical
Description: as §1

TC-PTP = TC-PTP (Homo sapiens, UniProt P17706); experiment: PTP inhibition assay (pNPP); type: biochemical
Description: as §1

PTP1B = PTP1B (Homo sapiens, UniProt P18031); experiment: PTP inhibition assay (pNPP); type: biochemical
Description: as §1

FAP-1 = FAP-1 (Homo sapiens, UniProt Q12923); experiment: PTP inhibition assay (pNPP); type: biochemical
Description: as §1

PTP1B and SHP1 = experiment: Western blot of PTP1B and SHP1 in KYSE-520 cells; type: cell-based; conditions: 16 h
Description: HEK293, SKBR3, U2OS, MCF7 and A549 cells were grown in DMEM supplemented with 10% FBS, penicillin (50 units/mL), and streptomycin (50 μg/mL) in a 37 °C incubator containing 5% CO2. KYSE-520 and H358 cells were grown in RPMI-1640 supplemented with 10% FBS, penicillin (50 units/mL), and streptomycin (50 μg/mL) in a 37 °C incubator containing 5% CO2. For western-blot analysis, protein samples were separated by SDS-PAGE, transferred to nitrocellulose membranes, and incubated overnight at 4 °C with corresponding primary antibodies diluted in 5% BSA in phosphate-buffered saline Tween (PBST). SuperSignal™ West Pico PLUS (PI34580; Thermo Scientific) was used to visualize the antibodies in the bioanalytical imaging system (Azure Biosystems c500). Anti-p-ERK1/2 (T202/Y204) (4370), and anti-ERK1/2 (4696) were purchased from Cell Signaling Technology. Anti-GAPDH (sc-365062), anti-SHP2 (sc-7384), anti-SHP1 (sc-7289), and anti-Actin (sc-8432) antibodies were purchased from Santa Cruz. Anti-PTP1B (ab244207) antibody was purchased from Abcam. For colony formation assay, a total of approximately 200–500 cells were seeded to each well in a 12-well plate. The wells were then treated with DMSO, compound P9 and 3 at 37 °C for 3 weeks, gently washed, and stained with crystal violet.

LMW-PTP, sequence (P24666 whole entry, species assumed): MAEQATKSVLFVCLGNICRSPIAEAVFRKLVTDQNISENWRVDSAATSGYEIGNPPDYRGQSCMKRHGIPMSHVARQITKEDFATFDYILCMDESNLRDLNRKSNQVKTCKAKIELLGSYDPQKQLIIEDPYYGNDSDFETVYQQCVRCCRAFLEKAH
HePTP, sequence (P35236 whole entry, species assumed): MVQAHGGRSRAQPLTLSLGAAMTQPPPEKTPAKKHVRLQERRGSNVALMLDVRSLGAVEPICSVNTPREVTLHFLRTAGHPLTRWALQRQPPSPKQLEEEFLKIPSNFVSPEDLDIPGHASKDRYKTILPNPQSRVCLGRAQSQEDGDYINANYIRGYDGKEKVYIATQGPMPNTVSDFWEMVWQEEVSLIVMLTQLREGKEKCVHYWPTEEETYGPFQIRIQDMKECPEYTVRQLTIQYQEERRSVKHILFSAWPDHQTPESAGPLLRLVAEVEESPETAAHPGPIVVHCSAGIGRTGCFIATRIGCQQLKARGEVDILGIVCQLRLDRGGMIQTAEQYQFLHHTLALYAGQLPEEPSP
SHP1, sequence (P29350 whole entry): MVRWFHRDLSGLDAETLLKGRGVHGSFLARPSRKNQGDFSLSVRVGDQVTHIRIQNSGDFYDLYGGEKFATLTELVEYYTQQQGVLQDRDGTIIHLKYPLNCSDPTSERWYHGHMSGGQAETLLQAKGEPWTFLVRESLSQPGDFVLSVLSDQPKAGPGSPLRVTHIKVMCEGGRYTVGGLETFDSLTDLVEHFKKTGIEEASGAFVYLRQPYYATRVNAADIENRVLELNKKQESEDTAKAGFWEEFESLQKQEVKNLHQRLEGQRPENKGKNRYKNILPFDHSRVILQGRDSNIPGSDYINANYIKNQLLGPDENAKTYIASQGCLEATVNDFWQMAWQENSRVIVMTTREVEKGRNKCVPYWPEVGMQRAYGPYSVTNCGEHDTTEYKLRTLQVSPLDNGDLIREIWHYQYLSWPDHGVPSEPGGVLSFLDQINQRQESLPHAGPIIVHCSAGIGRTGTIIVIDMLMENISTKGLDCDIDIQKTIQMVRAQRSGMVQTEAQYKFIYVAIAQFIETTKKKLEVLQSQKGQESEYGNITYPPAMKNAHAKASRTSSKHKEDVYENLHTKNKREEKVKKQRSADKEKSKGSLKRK
LYP, sequence (Q9Y2R2 whole entry, species assumed): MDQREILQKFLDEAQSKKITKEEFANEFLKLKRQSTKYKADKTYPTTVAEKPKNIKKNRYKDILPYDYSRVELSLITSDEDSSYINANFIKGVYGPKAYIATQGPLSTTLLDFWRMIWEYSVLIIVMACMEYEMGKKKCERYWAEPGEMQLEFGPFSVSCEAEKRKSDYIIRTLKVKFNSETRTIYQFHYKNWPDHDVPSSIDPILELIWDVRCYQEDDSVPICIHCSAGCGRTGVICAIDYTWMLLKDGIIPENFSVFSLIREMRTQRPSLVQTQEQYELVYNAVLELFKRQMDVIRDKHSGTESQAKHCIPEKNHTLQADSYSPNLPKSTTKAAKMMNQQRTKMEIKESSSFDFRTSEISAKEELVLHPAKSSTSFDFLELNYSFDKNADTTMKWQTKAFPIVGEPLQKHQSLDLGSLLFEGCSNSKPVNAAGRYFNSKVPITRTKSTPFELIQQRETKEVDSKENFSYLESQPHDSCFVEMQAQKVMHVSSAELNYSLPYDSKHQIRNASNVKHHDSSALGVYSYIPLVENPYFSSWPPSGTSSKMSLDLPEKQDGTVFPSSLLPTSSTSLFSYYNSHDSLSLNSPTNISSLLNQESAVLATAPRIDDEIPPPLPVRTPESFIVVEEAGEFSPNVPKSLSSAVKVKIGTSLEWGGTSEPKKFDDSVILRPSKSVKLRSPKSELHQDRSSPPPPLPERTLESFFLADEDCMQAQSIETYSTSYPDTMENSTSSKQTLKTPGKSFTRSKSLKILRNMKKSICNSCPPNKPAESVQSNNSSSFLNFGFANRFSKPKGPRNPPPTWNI
FAP-1, sequence (Q12923 whole entry, species assumed): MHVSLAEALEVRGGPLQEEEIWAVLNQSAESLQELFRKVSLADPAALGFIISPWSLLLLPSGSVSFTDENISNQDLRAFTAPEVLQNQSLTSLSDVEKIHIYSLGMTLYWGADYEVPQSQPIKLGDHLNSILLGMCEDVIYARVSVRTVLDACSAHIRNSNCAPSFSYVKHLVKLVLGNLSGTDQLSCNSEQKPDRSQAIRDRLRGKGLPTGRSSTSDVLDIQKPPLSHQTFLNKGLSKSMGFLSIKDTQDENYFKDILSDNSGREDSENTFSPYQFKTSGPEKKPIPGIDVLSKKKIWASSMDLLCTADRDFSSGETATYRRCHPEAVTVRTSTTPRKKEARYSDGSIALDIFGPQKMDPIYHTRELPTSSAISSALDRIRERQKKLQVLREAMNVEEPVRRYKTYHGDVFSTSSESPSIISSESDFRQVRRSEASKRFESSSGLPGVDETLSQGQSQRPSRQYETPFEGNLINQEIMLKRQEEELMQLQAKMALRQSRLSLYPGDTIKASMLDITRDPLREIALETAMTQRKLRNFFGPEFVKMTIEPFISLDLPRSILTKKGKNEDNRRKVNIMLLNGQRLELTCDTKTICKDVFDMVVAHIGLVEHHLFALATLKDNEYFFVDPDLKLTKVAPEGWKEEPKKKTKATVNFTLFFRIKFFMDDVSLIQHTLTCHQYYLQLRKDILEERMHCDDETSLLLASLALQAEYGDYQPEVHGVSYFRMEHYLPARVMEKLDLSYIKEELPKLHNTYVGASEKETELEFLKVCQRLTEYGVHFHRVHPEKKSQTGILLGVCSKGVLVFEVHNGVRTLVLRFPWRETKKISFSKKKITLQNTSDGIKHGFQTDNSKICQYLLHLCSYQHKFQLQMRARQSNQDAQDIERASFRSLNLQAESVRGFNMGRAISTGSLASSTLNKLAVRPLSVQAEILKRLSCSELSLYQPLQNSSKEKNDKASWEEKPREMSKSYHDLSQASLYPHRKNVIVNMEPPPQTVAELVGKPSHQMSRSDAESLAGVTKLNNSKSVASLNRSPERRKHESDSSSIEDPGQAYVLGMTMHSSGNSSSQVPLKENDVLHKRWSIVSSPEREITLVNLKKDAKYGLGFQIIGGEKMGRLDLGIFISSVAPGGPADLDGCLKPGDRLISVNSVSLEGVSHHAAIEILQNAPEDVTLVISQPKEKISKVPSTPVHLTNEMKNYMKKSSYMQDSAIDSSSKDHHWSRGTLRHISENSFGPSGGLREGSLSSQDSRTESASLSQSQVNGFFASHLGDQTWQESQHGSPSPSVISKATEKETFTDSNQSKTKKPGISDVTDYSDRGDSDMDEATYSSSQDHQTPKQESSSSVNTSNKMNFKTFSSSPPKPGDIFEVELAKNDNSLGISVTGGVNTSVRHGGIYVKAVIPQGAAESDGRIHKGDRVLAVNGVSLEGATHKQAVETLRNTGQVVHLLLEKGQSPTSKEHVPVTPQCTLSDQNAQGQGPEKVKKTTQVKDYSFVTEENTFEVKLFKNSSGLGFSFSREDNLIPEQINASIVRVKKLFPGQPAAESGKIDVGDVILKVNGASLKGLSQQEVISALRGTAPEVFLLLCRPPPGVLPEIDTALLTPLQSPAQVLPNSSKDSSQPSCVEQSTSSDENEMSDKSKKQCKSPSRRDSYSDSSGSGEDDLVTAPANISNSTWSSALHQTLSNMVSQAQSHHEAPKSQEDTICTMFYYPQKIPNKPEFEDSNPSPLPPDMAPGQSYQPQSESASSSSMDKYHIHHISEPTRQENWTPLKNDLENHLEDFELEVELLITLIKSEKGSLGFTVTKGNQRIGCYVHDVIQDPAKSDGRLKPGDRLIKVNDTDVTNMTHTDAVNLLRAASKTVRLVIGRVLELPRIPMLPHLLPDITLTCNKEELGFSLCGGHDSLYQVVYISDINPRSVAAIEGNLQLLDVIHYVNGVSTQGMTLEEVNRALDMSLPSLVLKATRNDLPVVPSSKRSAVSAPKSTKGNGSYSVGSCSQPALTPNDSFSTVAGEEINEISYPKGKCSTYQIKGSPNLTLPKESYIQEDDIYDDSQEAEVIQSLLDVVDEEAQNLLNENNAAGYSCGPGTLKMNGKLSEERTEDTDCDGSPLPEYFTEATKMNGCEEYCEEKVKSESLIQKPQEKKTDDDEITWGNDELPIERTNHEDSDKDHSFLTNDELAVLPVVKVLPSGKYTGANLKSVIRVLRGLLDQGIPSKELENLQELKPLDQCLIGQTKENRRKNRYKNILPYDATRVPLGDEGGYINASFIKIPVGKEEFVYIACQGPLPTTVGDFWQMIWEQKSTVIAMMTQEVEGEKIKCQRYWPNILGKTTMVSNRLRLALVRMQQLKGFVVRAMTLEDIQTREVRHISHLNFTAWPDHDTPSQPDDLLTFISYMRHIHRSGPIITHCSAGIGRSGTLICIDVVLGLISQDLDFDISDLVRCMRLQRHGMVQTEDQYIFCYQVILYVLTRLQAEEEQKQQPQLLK
STEP, sequence (P54829 whole entry, species assumed): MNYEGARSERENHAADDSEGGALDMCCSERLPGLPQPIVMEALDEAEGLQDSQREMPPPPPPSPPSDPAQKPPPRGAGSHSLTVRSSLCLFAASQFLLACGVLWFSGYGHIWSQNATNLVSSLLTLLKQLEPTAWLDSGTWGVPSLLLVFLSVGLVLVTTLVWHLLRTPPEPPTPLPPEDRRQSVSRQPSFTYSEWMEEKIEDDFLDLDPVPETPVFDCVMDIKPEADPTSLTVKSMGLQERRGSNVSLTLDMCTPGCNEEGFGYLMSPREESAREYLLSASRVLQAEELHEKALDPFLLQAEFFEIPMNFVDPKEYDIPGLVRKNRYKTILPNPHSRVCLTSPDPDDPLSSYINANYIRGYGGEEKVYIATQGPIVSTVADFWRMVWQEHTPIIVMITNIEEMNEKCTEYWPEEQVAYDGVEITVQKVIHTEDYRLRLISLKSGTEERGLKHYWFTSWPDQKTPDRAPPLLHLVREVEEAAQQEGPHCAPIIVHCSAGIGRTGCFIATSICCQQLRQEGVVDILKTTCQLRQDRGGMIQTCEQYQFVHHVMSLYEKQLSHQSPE

Cc1ncsc1-c1ccc([C@H](C)NC(=O)[C@@H]2C[C@@H](O)CN2C(=O)[C@@H](NC(=O)CCCCCCCCCN2CCN(C(=O)CCCCCC3(CN)CCN(c4cnc(Sc5cccc(Cl)c5Cl)c(N)n4)CC3)CC2)C(C)(C)C)cc1 [P9, (2S,4R)-1-((S)-2-(10-(4-(6-(1-(6-amino-5-((2,3-dichlorophenyl)thio)pyrazin-2-yl)-4-(aminomethyl)piperidin-4-yl)hexanoyl)piperazin-1-yl)decanamido)-3,3-dimethylbutanoyl)-4-hydroxy-N-((S)-1-(4-(4-methylthiazol-5-yl)phenyl)ethyl)pyrrolidine-2-carboxamide]
> 105: Fold selectivity CDC-14A (CDC-14A; over SHP2) | Fold selectivity VHR (VHR; over SHP2) | Fold selectivity CD45 (CD45; over SHP2) | Fold selectivity Laforin (Laforin; over SHP2) | Fold selectivity STEP (STEP; over SHP2) | Fold selectivity HePTP (HePTP; over SHP2) | Fold selectivity PTP-α (PTP-α; over SHP2) | Fold selectivity PTP-MEG2 (PTP-MEG2; over SHP2) | Fold selectivity SHP1 (SHP1; over SHP2) | Fold selectivity LYP (LYP; over SHP2) | Fold selectivity LMW-PTP (LMW-PTP; over SHP2) | Fold selectivity TC-PTP (TC-PTP; over SHP2) | Fold selectivity PTP1B (PTP1B; over SHP2) | Fold selectivity FAP-1 (FAP-1; over SHP2)
not affected: protein levels of PTP1B and SHP1 (PTP1B and SHP1)
> 10 µM: IC50 (CDC-14A; pNPP 0.05 mM) | IC50 (VHR; pNPP 5 mM) | IC50 (CD45; pNPP 5 mM) | IC50 (Laforin; pNPP 4 mM) | IC50 (STEP; pNPP 2 mM) | IC50 (HePTP; pNPP 6 mM) | IC50 (PTP-α; pNPP 2 mM) | IC50 (PTP-MEG2; pNPP 6 mM) | IC50 (SHP1; pNPP 3 mM) | IC50 (LYP; pNPP 5 mM) | IC50 (LMW-PTP; pNPP 2 mM) | IC50 (TC-PTP; pNPP 2 mM) | IC50 (PTP1B; pNPP 2 mM) | IC50 (FAP-1; pNPP 0.5 mM)
